Laboratory results as given in patent publication US9109041B2, “Analog compounds of analgesic peptides derived from the venom of crotalus durissus terrificus snakes, their uses, compositions, methods of preparation and purification” (priority 2004, dated 2015).
Bridges are numbered along the chain shown (N, C = ends). Where no end group is shown, it is not given here. [ ]: non-standard residue; d: D form. pGlu = O=C1CC[C@@H](C(=O)O)N1

Tested on: prostaglandin E2-induced hyperalgesia
Assay: rat paw pressure test, prostaglandin E2-induced hyperalgesia
Settings: for pain threshold, FM (g) ± S.E.M: 3 h after PGE2 100 ng/paw i.pl.; for analgesic activity: synthetic peptides compared with natural ENPAK-k, similar conditions
[1] = oral route, reversal of PGE2-induced hyperalgesia, CurveExpert 1.3

With `CN1CC[C@]23c4c5ccc(O)c4O[C@H]2[C@@H](O)C=C[C@H]3[C@H]1C5` [Morphine, reference compound] the “pain threshold, FM (g) ± S.E.M” value (morphine 0.004 μg/kg p.o.) was 69 ± 1.87 g, the “pain threshold, IM (g) ± S.E.M.” value (morphine 0.004 μg/kg p.o., before PGE2) was 77 ± 1.22 g and the “pain threshold, FM (g) ± S.E.M” value (morphine 0.2 μg/kg p.o.) was 70 ± 1.58 g. For the same compound, the “pain threshold, IM (g) ± S.E.M.” value (morphine 0.2 μg/kg p.o., before PGE2) was 76 ± 1.87 g, the “pain threshold, FM (g) ± S.E.M” value (morphine 1 μg/kg p.o.) was 85 ± 1.58 g and the “pain threshold, IM (g) ± S.E.M.” value (morphine 1 μg/kg p.o., before PGE2) was 78 ± 1.22 g. The “pain threshold, FM (g) ± S.E.M” value (morphine 5 μg/kg p.o.) was 109 ± 1.87 g, the “pain threshold, IM (g) ± S.E.M.” value (morphine 5 μg/kg p.o., before PGE2) was 78 ± 1.22 g and the 50% effective dose [1] was 0.05515 µg/kg. It also gave a 90% effective dose [1] of 0.3267 µg/kg.
For “SEQ ID NO: 3: one of 4 possible sequences pGlu-Phe-Ser-Pro-Glu-Asn-Cys-Lys/Gln-Gly-Glu-Ser-Lys/Gln-Pro-Cys; modified synthetic peptide (XFSPENCQGESKPC; Synthetically generated peptide)”, the “pain threshold, FM (grams) ± S.E.M.” value (p.o., 2 ml of solution (peptide diluted in 11 ml of saline), 3 hours after PGE2 100 ng/paw i.pl.) was 110 ± 2.74 grams, the “pain threshold, IM (grams) ± S.E.M.” value (p.o., 2 ml of solution (peptide diluted in 11 ml of saline), before PGE2) was 76 ± 1.00 grams and the analgesic activity was “demonstrated analgesic activity”.
In the case of “SEQ ID NO: 6: one of 4 possible sequences pGlu-Phe-Ser-Pro-Glu-Asn-Cys-Lys/Gln-Gly-Glu-Ser-Lys/Gln-Pro-Cys; synthetic peptide (XFSPENCKGESQPC; Synthetically generated peptide)”, the analgesic activity was “inactivity”.
In the case of “SEQ ID NO: 7: one of 4 possible sequences pGlu-Phe-Ser-Pro-Glu-Asn-Cys-Lys/Gln-Gly-Glu-Ser-Lys/Gln-Pro-Cys; synthetic peptide ([pGlu]FSPENCKGESKPC; disulfide 7-14)”, the analgesic activity was “inactivity”.
